Key:
[1] = test system: riboproteomes of PPC1 prostate cancer cells; assay: SILAC riboproteomic analysis of polysomes upon mTOR inhibition; type: cell-based, human
Description: SILAC labeled protein mixtures were run by SDS-PAGE and gel lanes were cut into 8 sections for overnight digestion at pH 8.0 with modified sequencing grade trypsin (Promega Corp.). Peptide mixtures were eluted and each gel section was analyzed separately by microcapillary liquid chromatography-tandem mass spectrometry (LC-MS/MS) using the EASY-nLC nanoflow HPLC (Thermo Fisher Scientific) with a 75 μm inner diameter×15 cm length Picofrit capillary column (New Objective, Inc.) self-packed with 5 μm Magic C18 resin (Michrom Bioresources) coupled to a hybrid LTQ Orbitrap XL-ETD mass spectrometer (Thermo Fisher Scientific). The LTQ Orbitrap XL was operated in data-dependent acquisition (DDA) Top 5 mode (1 profile FT-MS spectrum followed by 6 centroided IT-MS/MS spectra). The resolution was 30,000 in FT-MS mode and MS/MS spectra were read out at low resolution in the LTQ XL ion trap. […] Carbamidomethylation of cysteine was set as fixed modification and variable modifications were oxidation of methionine and protein N-acetylation. […] Initial peptide mass tolerance was set to 12 ppm and fragment ion mass tolerance was set to 0.8 Da. Two missed cleavages were allowed and the minimal length required for a peptide was six amino acids. […]

[2] = test system: binding of LARP1 at the polysome; assay: Micrococcal nuclease (MN) assay on pooled sucrose gradient fractions, ribosome pelleting and western blot; settings: cells treated with PP242 prior to analysis
Description: Pooled sucrose gradient fractions containing LARP1 protein, were treated with and without MN. Ribosomes were subsequently pelleted by ultracentrifugation, and the protein in supernatant and pellet isolated for western blot analysis.

[3] = test system: ribosome-mRNA complexes of PC3 prostate cancer cells; assay: Puromycin-mediated dissociation of ribosome-mRNA complexes, western blot of polysomal fractions; type: biochemical, human; settings: 1 mM puromycin in lysis buffer, 37° C. 15 min
Description: Puromycin-induced polysome dissociation was carried out by the addition of 1 mM puromycin directly to the lysis buffer lacking cycloheximide as previously described (Blobel and Sabatini, Proc Natl Acad Sci USA 68:390-394, 1971; Fuchs et al., J Mol Biol. 410:118-130, 2011). Briefly, following lysis, the samples were incubated at 37° C. for 15 min to dissociate ribosome-mRNA complexes. Lysates were centrifuged at 13,000 rpm for 5 min at 4° C., and the supernatant carefully removed and loaded on a 15%-50% sucrose gradient. Gradients were centrifuged and fractionated as described above.
Cells were lysed in lysis buffer containing Complete Mini protease inhibitors (EDTA free) (Roche) and a Phosphatase Inhibitor cocktail (Thermo Scientific). 5-50 μg of total protein was subjected to SDS-PAGE on 4-12% Bis-Tris acrylamide NuPAGE gels in MOPS SDS running buffer (Invitrogen). The following primary antibodies were used: MARCKS, phospho-MARCKS (S152/156), Integrin β1, Calmodulin, Hsp27, Hsp60, RpL13a, RpL7a, and RpS6 (all Cell Signaling), HSP90, (BD Bioscience; BD Transduction Laboratories), hnRNPC1/C2 (Millipore), Rps14 and β-actin (all from Santa Cruz Biotechnologies). The NPM antibody was from DAKO and the IGF2BP3 antibody was from ProteinTech. Subsequently, membranes were incubated with secondary, HRP-tagged antibodies (Amersham) and signals were visualized with ECL or ECL plus (Amersham). […]

Structure (SMILES) | disassociation of proteins incl. ribosomal proteins (RpL4, RpL6, RpS6) from the riboproteome ([1]; PP242 500 nM for three hours vs DMSO) | impact on the composition of the riboproteome ([1]; rapamycin 20 nM or PP242 500 nM for three hours vs DMSO, SILAC mass spectrometry of polysomes) | LARP1 in supernatant after ribosome pelleting [2] | PABP association with polysome fractions [2] | RpS6 and RpL13a on polyribosomes ([3]; pooled polysomal fractions) | presence of MARCKS in polyribosome fractions ([3]; PC3 cells)
CC(C)n1nc(-c2cc3cc(O)ccc3[nH]2)c2c(N)ncnc21 [PP242] | rapid and significant disassociation from the riboproteome | much stronger and more robust perturbation of the riboproteome | more LARP1 observed in the supernatant | remain tightly intact with polysome fractions | – | –
COc1ccc(C[C@H](N)C(=O)N[C@H]2[C@@H](O)[C@H](n3cnc4c(N(C)C)ncnc43)O[C@@H]2CO)cc1 [puromycin] | – | – | – | – | loss of RpS6 and RpL13a from polyribosomes | dramatically decreased

Reference: patent US20150079590A1, “CHARACTERIZATION AND ANALYSIS OF THE COMPOSITION AND DYNAMICS OF THE MAMMALIAN RIBOPROTEOME” (Beth Israel Deaconess Medical Center, Inc., priority 2013, published 2015)
